According to patent US12421279B2, “Cyclic peptide antiviral agents and methods using same” (priority 2016, dated 2025):
“And” between values parts separate entries of the source, which are not always exact repeats. Equal values may be shown once. Read-outs that look alike come from different tables or passages of the source. *1 amine or outer side, *2 acyl side, *3 side chain or, on linkers, in order; H or OH if unused. Where a SMILES comes first, the peptide text is derived from it. Bridges are numbered along the chain shown (N, C = ends). [ ]: non-standard residue; d: D form. X1 = O=C([C@@H]1C[C@H](n2cc(-c3ccc(-c4cccs4)cc3)nn2)CN1[*:1])[*:2]; X9 = CCc1ccc(-c2cn([C@H]3C[C@@H](C(=O)[*:2])N([*:1])C3)nn2)cc1; Bta = N[C@@H](Cc1csc2ccccc12)C(=O)O; Chg = N[C@H](C(=O)O)C1CCCCC1; Dab = NCC[C@H](N)C(=O)O

Legend:
[1] = PBS buffer or PBS buffer with 5% DMSO
Text: Each cPT was synthesized starting from the corresponding amino acids: Asn for 34 and Dab for 35. Designation of “poor” and “good” solubility was based on behavior of cPT in PBS buffer or PBS buffer with 5% DMSO.

[2] = target: T1, HIV-1YU-2 gp120 binding to mAb 17b (Human immunodeficiency virus type 1 group M subtype B, UniProt P35961); assay: SPR competition assay: inhibition of gp120 binding to 17b (co-receptor surrogate); conditions: for inhibition of gp120 binding to 17b (in words): SPR competition
T1 construct: The purified DNA encoding gp120 YU-2 was transfected into HEK 293F cells; made in house; host or cells: HEK 293F
Protocol: (§1) SPR experiments are performed on a Biacore 3000 optical biosensor (GE Healthcare). All experiments are carried out at 25° C. using standard PBS buffer pH=7.4 with 0.005% surfactant Tween and 2% DMSO.
(§2) Three flow cells in the CM5 chip were used for amine coupling of different ligands through standard 1-ethyl-3-(3-(dimethylamino) propyl) carbodiimide (EDC)/N-hydroxysuccinamide (NHS) chemistry. Flow cell 1 containing 2000 RUs of immobilized antibody 2B6R (α-human IL5R) served as a negative control for flow cells 2 and 3 each of which contained 2000 RUs of immobilized CD4 and 17b respectively.
(§3) For kinetic analyses, typically 2000-3000 RUs of protein reagents are immobilized on SPR chips, and analytes are passed over the surface at 50-100 μL/min. Surface regeneration is achieved by a 5 μL injection of 10 mM HCl solution at 100 μL/min. […] Regeneration of the surface is achieved by a single 10 second pulse of 1.3 M NaCl/35 mM NaOH and single 5-second pulse of 10 mM glycine, pH 1.5, for sCD4 and mAb 17b, respectively.
(§4) Data analysis of SPR competition data was performed using BIAevaluation v4.1.1 software (GE). To correct for nonspecific binding, response signals from buffer injection and from control flow cell were subtracted from all sensorgrams. Inhibition potencies were determined by calculating the inhibitor concentration required for 50% inhibition of maximal binding (IC50). The inhibition curve was plotted and then fitted using the four-parameter equation as shown below using OriginPro 8 graphing software.
(§5) The cyclic peptides of the invention are tested against HIV-1 gp120 by SPR competition assays. A mixture of the cyclic peptide/gp120 solutions is passed over SPR chip immobilized with CD4 and 17b separately. The competition assay evaluates the ability of each peptide to inhibit the binding between gp120 and both soluble CD4 and 17b antibody, a surrogate for co-receptor.

HIV-1Bal.01 = conditions: for IC50: read-out: HIV-1Bal.01 infection inhibition IC50, HIV-1Bal.01 pseudovirus, HOS.T4.R5 cells
wild type gp120 YU-2 = target: T2, wild type gp120 YU-2 (Human immunodeficiency virus type 1 group M subtype B, UniProt P35961); assay: Isothermal titration calorimetry binding to gp120; parameters: species or system HIV-1
T2 construct: into 30 μM of YU2 full-length gp120 at 25° C; made in house; host or cells: HEK 293F
Protocol: FIGS. 9A-9C illustrate cPT binding and thermodynamic profile of monomeric wild type gp120 YU-2 for cPTs 3 (FIGS. 9A and 9C) and 36 (FIGS. 9B and 9C). Compound solution, 390 μM (for 3) or 200 μM (for 36), was titrated in 8 μL steps into 30 μM of YU2 full-length gp120 at 25° C. in the reaction chamber of a VP-ITC instrument using 1×PBS buffer at pH 7.3. The resulting heat changes were integrated, and the values obtained were fitted to a quadratic binding equation (one site binding model).
cPT dissociation constants were determined at 25° C. on a VP-Isothermal Titration calorimeter (VP-ITC) system (MicroCal™, GE Healthcare, Freiburg). 200 μM (for 36) or 390 μM (for 3) compound solutions were in 8 μL steps titrated into 30 μM of wild type gp120 YU-2 at 25° C. using 1×PBS buffer at pH 7.3. The resulting heat change upon injection was integrated over a time range of 300 sec, and the obtained values were fitted to a standard single-site binding model using ORIGIN®.

[3] = target: T3, HIV-1YU-2 gp120 binding to sCD4 (Human immunodeficiency virus type 1 group M subtype B, UniProt P35961); assay: SPR competition assay: inhibition of gp120 binding to CD4; conditions: for inhibition of gp120 binding to CD4 (in words): SPR competition
T3 construct: The purified DNA encoding gp120 YU-2 was transfected into HEK 293F cells; made in house; host or cells: HEK 293F
Protocol: as §1, §2, §3, §4, §5

HOS.T4.R5 cells = system: HOS.T4.R5 cells
Protocol: cPTs 36 and 37 were tested for cytotoxicity in vitro with HOS.T4.R5 cells. The latter were seeded at […] per well and incubated with peptides as described elsewhere herein for the infection inhibition assays. Cell viability was determined using the tetrazolium salt premix reagent WST-1 from TaKaRa Bio, Inc., by following the manufacturer's protocol. The formazan product was measured 24 h post-exposure using a microplate reader (Molecular Devices) at an absorbance wavelength of 450 nm.

tissue explants model = conditions: concentrations up to 100 μM; cited from earlier work
monomeric gp120 = monomeric gp120 (Human immunodeficiency virus type 1 group M subtype B, UniProt P35961); conditions: background; cited from earlier work
[4] = system: subtype A, B and C isolates; conditions: read-out: IC50 range, neutralizes viral infection by subtype A; cited from earlier work
[5] = system: viruses pseudotyped with VSV-G; conditions: background; cited from earlier work

CCc1ccc(-c2cn([C@H]3C[C@H]4C(=O)N[C@@H](Cc5csc6ccccc56)C(=O)N[C@H](C(N)=O)CCCCNC(=O)C[C@H](N)C(=O)N[C@@H](CCN)C(=O)N[C@@H](C5CCCCC5)C(=O)N4C3)nn2)cc1 [compound 35] (H-D[Dab][Chg][X9][Bta]K-NH2; lactam 1-6)
solubility [1]: better solubility

CC[C@H](C)[C@@H]1NC(=O)[C@H](CC(N)=O)NC(=O)[C@@H](N)CC(=O)NCCCC[C@@H](C(N)=O)NC(=O)[C@H](Cc2c[nH]c3ccccc23)NC(=O)[C@@H]2C[C@H](n3cc(-c4ccc(-c5cccs5)cc4)nn3)CN2C1=O [cPT 36, (3S,6S,14S,17S,20S,24S,25aS)-3-((1H-indol-3-yl)methyl)-14-amino-17-(2-amino-2-oxoethyl)-20-((S)-sec-butyl)-1,4,12,15,18,21-hexaoxo-24-(4-(4-(thiophen-2-yl)phenyl)-1H-1,2,3-triazol-1-yl)tetracosahydro-1H-pyrrolo[2,1-f][1,4,7,10,13,18]hexaazacyclotricosine-6-carboxamide] (H-DNI[X1]WK-NH2; lactam 1-6)
IC50 [2]: ~0.056 µM
inhibition of gp120 binding to 17b (in words) [2]: inhibited gp120 binding to both CD4 and 17b
inhibition of gp120 binding to 17b (in words) ([2]; listed as 29N-2): dual inhibitors of both CD4 and 17b binding to gp120
fold improvement in potency compared to 23 (HIV-1Bal.01; infection inhibition): > 2 fold
IC50 (HIV-1Bal.01): 0.105 µM and ~0.1 µM
IC50 (HIV-1Bal.01; listed as 29N-2): ~0.105 µM
Kd (wild type gp120 YU-2): 0.35 µM
ΔH (wild type gp120 YU-2; ITC, 25° C.): -4.07 ± 0.06 kcal/mol
ΔS (wild type gp120 YU-2; ITC, 25° C.): 0.0159 kcal/mol
−TΔS (wild type gp120 YU-2; ITC, 25° C.): -4.74 kcal/mol
IC50 [3]: ~0.066 µM
inhibition of gp120 binding to CD4 (in words) [3]: inhibited gp120 binding to both CD4 and 17b
inhibition of gp120 binding to CD4 (in words) ([3]; listed as 29N-2): dual inhibitors of both CD4 and 17b binding to gp120
selectivity index (SI) (HOS.T4.R5 cells; estimated from the IC50 and the CC50 values): > 1000
cytotoxicity (cell viability) (HOS.T4.R5 cells; highest concentrations used 100 μM, 24 h post-exposure): no cytotoxicity was detected

CCc1ccc(-c2cn([C@H]3C[C@H]4C(=O)N[C@@H](Cc5csc6ccccc56)C(=O)N[C@H](C(N)=O)CCCCNC(=O)C[C@H](N)C(=O)N[C@@H](CC(N)=O)C(=O)N[C@@H](C5CCCCC5)C(=O)N4C3)nn2)cc1 [compound 34] (H-DN[Chg][X9][Bta]K-NH2; lactam 1-6)
solubility [1]: poor solubility

(S)-4-((S)-2-((S)-2-((2S,4S)-1-(L-arginyl-L-isoleucyl-L-asparaginyl-L-asparaginyl-L-alloisoleucyl)-4-(4-ferrocenyl-1H-1,2,3-triazol-1-yl)pyrrolidine-2-carboxamido)-3-(1H-indol-3-yl) propanamido)-3-hydroxypropanamido)-5-(((S)-1-(((S)-1-(((S)-1-amino-4-(methylthio)-1-oxobutan-2-yl)amino)-4-(methylthio)-1-oxobutan-2-yl)amino)-1-oxopropan-2-yl)amino)-5-oxopentanoic acid [HNG156]
toxicity (tissue explants model): no detectable toxicity
Kd (monomeric gp120): 0.007 µM
IC50 [4]: 0.08 to 62.5 µM
neutralization of VSV-G pseudotyped viruses [5]: not viruses pseudotyped with VSV-G
